Assay [1] deals with T1, adenosine receptor 2A (A2A) (Homo sapiens, UniProt P29274).
T1 construct: CEREP (Poitiers, France), paid service
The following applies: cited from earlier work; for pIC50: S1 Table, compounds given as SMILES, downloaded from ChEMBL; for measured pIC50: training set compound, negative logarithm of IC50.

Assay [2] addresses T1, adenosine receptor 2A (A2A). The experiment in a line: Functional assay monitoring Ca2+ flux (DiscoveRx). As to conditions: for inhibition: read-out: IC50, Ca2+, M. Format: cell-based. More on the design: inhibition: dose or concentration left out as unconfirmed.
Description: (§1) Competition binding assay using radioactive ligands and functional assay monitoring cAMP were carried out as a paid service provided by CEREP (Poitiers, France). The functional assays monitoring Ca^2+ flux were carried out as a paid service provided by DiscoveRx (Carlsbad, CA).
The target is the same in assay [3]. The experiment in a line: Competition binding assay using radioactive ligands (CEREP).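 For all read-outs here: compounds screened at a single fixed 10 µM concentration for displacement of a radioligand.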 More on the design: inhibition: dose or concentration left out as unconfirmed. The following applies: for inhibition at 10 µM: fixed compound concentration of 10 μM.
Description: as §1
Assay [4] has the same target. The experiment in a line: Functional antagonist assay monitoring cAMP (CEREP).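 For IC50, cAMP, M: eight-point concentration-response from 0 to 10 µM.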 Format: cell-based.
Description: as §1
The mark [5] stands for this setting: concentration-response up to 10 μM, read-out: IC50, cAMP.

pIC50: −log10 of the molar value. Where two headings read alike, the source gives them in different places.

T1 sequence (P29274 whole entry): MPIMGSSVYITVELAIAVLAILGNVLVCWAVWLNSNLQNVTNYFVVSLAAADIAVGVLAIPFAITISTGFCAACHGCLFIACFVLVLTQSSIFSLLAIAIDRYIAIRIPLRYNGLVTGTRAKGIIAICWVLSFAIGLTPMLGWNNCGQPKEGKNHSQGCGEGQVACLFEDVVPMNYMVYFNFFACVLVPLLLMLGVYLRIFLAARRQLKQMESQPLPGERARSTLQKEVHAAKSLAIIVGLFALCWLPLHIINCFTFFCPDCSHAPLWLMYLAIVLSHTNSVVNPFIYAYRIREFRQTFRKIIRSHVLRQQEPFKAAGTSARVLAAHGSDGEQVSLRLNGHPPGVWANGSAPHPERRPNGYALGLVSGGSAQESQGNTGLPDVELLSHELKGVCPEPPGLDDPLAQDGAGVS

In the case of `CCNc1cc2nc(NCc3cccnc3)nc(C(=O)c3cccs3)c2s1`, the pIC50 (commonly the IC50 on a negative log10 scale, so that one unit is a factor of ten) in assay [1] is 5.60.

In the case of `CCOC(=O)Nc1cc(-c2cncc(OC)c2)nc(-n2nc(C)cc2C)n1`, in assay [1], the pIC50 was 6.71.

Take `Cc1ccc(C(=O)c2nc(NC(C)c3ccccc3)nc3ccsc23)s1` (centres unmarked): the pIC50 in assay [1] was 5.97.

Take `Cc1ccc(C(=O)c2nc(NC(C)c3ccccn3)nc3ccsc23)s1` (centres unmarked): the pIC50 in assay [1] was 6.93.

As to `Cc1ccc(C(=O)c2nc(NC(C)c3cccnc3)nc3ccsc23)s1` (centres unmarked), the pIC50 in assay [1] is 7.00.

As for `CC(=O)Nc1cc(-c2cccc(N3CCC(O)CC3)n2)nc(-n2nc(C)cc2C)n1`, in assay [1], the pIC50 was 7.66.

With `CC(=O)Nc1cc(-c2cncc(O)c2)nc(-n2nc(C)cc2C)n1`, the pIC50 in assay [1] was 7.19.

With `CCc1ccccc1-n1nc(C)c(-c2ccc3nccnc3c2)c1Nc1ccc(OC)cc1C(=O)O`, in assay [1], the pIC50 is 4.30.

Take `CCc1nn(-c2ccccc2C)c(Nc2ccccc2C(=O)O)c1-c1ccc2nccnc2c1`: the pIC50 in assay [1] was 4.30.

As to `CN(C)c1cc2nc(NCc3cccnc3)nc(C(=O)c3cccs3)c2s1`, the pIC50 in assay [1] is 5.85.

For `Cc1ccc(C(=O)c2nc(N(C)Cc3cccnc3)nc3ccsc23)s1`, in assay [1], the pIC50 is 5.64.

On to `CNc1cc2nc(NCc3cccnc3)nc(C(=O)c3cccs3)c2s1`, for which the pIC50 in assay [1] was 6.02.

Regarding `COC(=O)Nc1cc(-c2cncc(OC)c2)nc(-n2nc(C)cc2C)n1`, the pIC50 in assay [1] is 6.78.

`COc1ccc(CCCn2ncc3c2nc(N)n2nc(-c4ccco4)nc32)cc1OC`: the pIC50 in assay [1] is 7.70.

`COc1ccc(Nc2c(-c3ccc4nccnc4c3)c(C)nn2-c2ccccc2C)c(C(=O)O)c1`: the pIC50 in assay [1] is 4.30.

As for `COc1ccc(Nc2c(-c3ccc4nccnc4c3)c(C)nn2-c2ccccc2Cl)c(C(=O)O)c1`, the negative-log IC50 (pIC50) in assay [1] is 4.30.

As for `COc1ccc(C(=O)c2nc(NCc3cccnc3)nc3ccsc23)cc1`, in assay [1], the pIC50 was 6.20.

`COc1cccc(-c2cc(NC(C)=O)nc(-n3nc(C)cc3C)n2)c1F`: in assay [1], the pIC50 is 7.49.

As to `C[C@H](Nc1nc(C(=O)N2CCCC2)c2sccc2n1)c1cccnc1`, the pIC50 in assay [1] is 6.33.

For `C[C@@H](Nc1nc(C(=O)N2CCCC2)c2sccc2n1)c1cccnc1`, the pIC50 in assay [1] is 5.17.

As to `Cc1ccc(Nc2c(-c3ccc4nccnc4c3)c(C)nn2-c2ccccc2C)c(C(=O)O)c1`, in assay [1], the pIC50 was 4.30.

For `Cc1ccc(C(=O)c2nc(NCc3cccnc3)nc3ccsc23)cc1`, the pIC50 in assay [1] was 6.35.

Turning to `Cc1ccc(C(=O)c2nc(NCCc3ccccn3)nc3ccsc23)s1`, in assay [1], the pIC50 was 6.45.

On to `Cc1ccc(C(=O)c2nc(NCCc3cccnc3)nc3ccsc23)s1`, for which, in assay [1], the pIC50 was 6.75.

Regarding `Cc1ccc(C(=O)c2nc(NC(=O)c3cccnc3)nc3ccsc23)s1`, the pIC50 in assay [1] is 6.79.

On to `Cc1ccccc1-n1nc(C)c(-c2cc(F)c3nccnc3c2)c1Nc1ccccc1C(=O)O`, for which the pIC50 in assay [1] is 4.30.

As for `Cc1ccccc1-n1nc(C)c(-c2ccc3nccnc3c2)c1Nc1ccc(Cl)cc1C(=O)O`, in assay [1], the pIC50 was 4.30.

Consider `Cc1ccccc1-n1nc(C(F)(F)F)c(-c2ccc3nccnc3c2)c1Nc1ccccc1C(=O)O`, for which the pIC50 in assay [1] was 4.30.

As for `Cc1ccccc1-n1ncc(-c2ccc3nccnc3c2)c1Nc1ccccc1C(=O)O`, the pIC50 in assay [1] was 4.30.

Turning to `CCNc1c2c(nc(NC(=O)Nc3ccc(OC)cc3)n3nc(-c4ccco4)nc23)nn1C`, the pIC50 in assay [1] was 7.21.

Consider `O=C(c1cccs1)c1nc(NCc2cccnc2)nc2cc(Cl)sc12`, for which the pIC50 in assay [1] is 7.21.

With `O=C(c1ccc(Cl)s1)c1nc(NCc2cccnc2)nc2ccsc12`, in assay [1], the pIC50 is 5.81.

Take `Nc1nc2c(cnn2CCCc2ccc(O)cc2)c2nc(-c3ccco3)nn12`: in assay [1], the pIC50 is 8.00.

As to `Nc1nc2c(cnn2CCc2ccc(OCc3ccccc3)cc2)c2nc(-c3ccco3)nn12`, the pIC50 in assay [1] was 7.05.

For the molecule `Nc1nc2c(cnn2Cc2ccc(OCc3ccccc3)cc2)c2nc(-c3ccco3)nn12`, in assay [1], the pIC50 was 6.30.

In the case of “5-methoxy-2-((3-methyl-1-phenyl-4-(quinoxalin-6-yl)-1H-pyrazol-5-yl)amino)benzoic acid”, in assay [1], the pIC50 is 5.26 and the “measured pIC50” value is 4.3. In addition, in assay [1] (listed as COc1ccc(Nc2c(c(C)nn2C3CCCCC3)c4ccc5nccnc5c4)c(c1)C(=O)O), the pIC50 was 4.30.

Regarding `N=C(N)NC(=O)c1nc(Cl)c(N)nc1N` [Amiloride], the inhibition in assay [2] is less than 50%; in assay [3] (read-out: %inhibition, binding), 53%; in assay [4] (read-out: IC50, cAMP, M) it was less than 50%.

Regarding `Cc1cc2c(OCC(CNC(C)(C)C)OC(=O)c3ccccc3)cccc2[nH]1` (centres unmarked) [Bopindolol], the inhibition in assay [2] is less than 50%. In addition, the inhibition at 10 µM in assay [3] is less than 50%. In addition, in assay [4] (setting [5]), the inhibition at up to 10 µM was less than 50%.

Regarding `CC(C)C[C@H](NC(=O)[C@H](Cc1ccccc1)NC(=O)c1cnccn1)B(O)O` [Bortezomib], the inhibition in assay [2] is less than 50%. Further, the inhibition at 10 µM in assay [3] was less than 50%. Also, the inhibition at up to 10 µM in assay [4] (setting [5]) is less than 50%.

On to `COc1ccccc1Oc1c(NS(=O)(=O)c2ccc(C(C)(C)C)cc2)nc(-c2ncccn2)nc1OCCO` [Bosentan], for which the inhibition at 10 µM in assay [2] (concentration-response up to 10 μM, read-out: IC50, Ca2+) is less than 50%; in assay [3] it was less than 50%; in assay [4] (setting [5]), less than 50%.

Take `CC(C)NC(=O)c1nc(NCc2cccnc2)nc2ccsc12` [CC(C)NC(=O)c1nc(NCc2cccnc2)nc3ccsc13, N-isopropyl-2-((pyridin-3-ylmethyl)amino)thieno[3,2-d]pyrimidine-4-carboxamide]: in assay [1], the “measured pIC50” value was 5.6.

As to `CC(Nc1nc(C(=O)N2CCCC2)c2sccc2n1)c1cccnc1` (centres unmarked) [CC(Nc1nc(C(=O)N2CCCC2)c3sccc3n1)c4cccnc4], the negative-log IC50 (pIC50) in assay [1] was 5.63.

Regarding `CCCSc1c2c(nc(N)n3nc(-c4ccco4)nc23)nn1C` [CCCSc1c2c(nc(N)n3nc(nc23)c4occc4)nn1C], in assay [1], the pIC50 is 7.83.

In the case of `CCNC(=O)c1nc(NCc2cccnc2)nc2ccsc12` [CCNC(=O)c1nc(NCc2cccnc2)nc3ccsc13], the pIC50 in assay [1] is 5.60.

Take `CCNc1nc(C(=O)c2ccc(C)s2)c2sccc2n1` [CCNc1nc(C(=O)c2ccc(C)s2)c3sccc3n1]: in assay [1], the pIC50 was 6.90.

Take `CCc1nc(C(=O)c2ccc(C)s2)c2sccc2n1` [CCc1nc(C(=O)c2ccc(C)s2)c3sccc3n1]: in assay [1], the pIC50 is 5.41.

`CSc1c2c(nc(N)n3nc(-c4ccco4)nc23)nn1C` [CSc1c2c(nc(N)n3nc(nc23)c4occc4)nn1C]: the pIC50 in assay [1] was 8.21.

For the molecule `C=CCN1C[C@H](C(=O)N(CCCN(C)C)C(=O)NCC)C[C@@H]2c3cccc4[nH]cc(c34)C[C@H]21` [Cabergoline], the inhibition in assay [2] is less than 50%. Besides, the inhibition at 10 µM in assay [3] is less than 50%. The inhibition at up to 10 µM in assay [4] (setting [5]) was less than 50%.

For `Cc1nc(C(=O)c2ccc(C)s2)c2sccc2n1` [Cc1ccc(s1)C(=O)c2nc(C)nc3ccsc23], the pIC50 in assay [1] was 5.11.

As for `Cc1ccc(C(=O)c2nc(N)nc3ccsc23)s1` [Cc1ccc(s1)C(=O)c2nc(N)nc3ccsc23], the pIC50 in assay [1] was 6.66.

In the case of `Cc1ccc(C(=O)c2nc(NCC3CCCCC3)nc3ccsc23)s1` [Cc1ccc(s1)C(=O)c2nc(NCC3CCCCC3)nc4ccsc24], the pIC50 in assay [1] was 5.00; in assay [1] (listed as Cc1ccc(s1)C(=O)c2nc(NCc3ccccc3)nc4ccsc24), 5.15.

As for `Cc1ccc(C(=O)c2nc(NCc3ccccn3)nc3ccsc23)s1` [Cc1ccc(s1)C(=O)c2nc(NCc3ccccn3)nc4ccsc24], the pIC50 in assay [1] was 6.73.

Regarding `Cc1ccc(C(=O)c2nc(NCc3cccnc3)nc3ccsc23)s1` [Cc1ccc(s1)C(=O)c2nc(NCc3cccnc3)nc4ccsc24], the negative-log IC50 (pIC50) in assay [1] was 6.00.

In the case of `Cc1ccc(C(=O)c2nc(NCc3ccncn3)nc3ccsc23)s1` [Cc1ccc(s1)C(=O)c2nc(NCc3ccncn3)nc4ccsc24], in assay [1], the pIC50 was 6.94 and the “measured pIC50” value was 6.9.

For `Cc1ccc(C(=O)c2ncnc3ccsc23)s1` [Cc1ccc(s1)C(=O)c2ncnc3ccsc23], in assay [1], the negative-log IC50 (pIC50) was 5.17.

Take `Cc1ccc(C(=O)c2nc(NCc3cccnc3)nc3ccsc23)o1` [Cc1oc(cc1)C(=O)c2nc(NCc3cccnc3)nc4ccsc24]: the negative-log IC50 (pIC50) in assay [1] is 5.90.

Take `Nc1cc2nc(NCc3cccnc3)nc(C(=O)c3cccs3)c2s1` [Nc1cc2nc(NCc3cccnc3)nc(C(=O)c4cccs4)c2s1]: the negative logarithm of the IC50 (pIC50) in assay [1] was 5.00.

For `O=C(c1nc(NCc2cccnc2)nc2ccsc12)N1CCCC1` [O=C(N1CCCC1)c2nc(NCc3cccnc3)nc4ccsc24], in assay [1], the negative logarithm of the IC50 (pIC50) was 5.21.

For `O=C(NC1CC1)c1nc(NCc2cccnc2)nc2ccsc12` [O=C(NC1CC1)c2nc(NCc3cccnc3)nc4ccsc24], the pIC50 in assay [1] was 6.15.

For the molecule `O=C(c1ccccc1)c1nc(NCc2cccnc2)nc2ccsc12` [O=C(c1ccccc1)c2nc(NCc3cccnc3)nc4ccsc24], in assay [1], the pIC50 is 5.79.

On to `O=C(c1cccnc1)c1nc(NCc2cccnc2)nc2ccsc12` [O=C(c1cccnc1)c2nc(NCc3cccnc3)nc4ccsc24], for which the negative logarithm of the IC50 (pIC50) in assay [1] was 5.93.

On to `O=C(c1cccs1)c1nc(NCc2cccnc2)nc2ccsc12` [O=C(c1cccs1)c2nc(NCc3cccnc3)nc4ccsc24], for which the pIC50 in assay [1] was 7.29.

For `O=C(c1ccncc1)c1nc(NCc2cccnc2)nc2ccsc12` [O=C(c1ccncc1)c2nc(NCc3cccnc3)nc4ccsc24], in assay [1], the pIC50 was 5.71.

In the case of `O=C(c1ccsc1)c1nc(NCc2cccnc2)nc2ccsc12` [O=C(c1ccsc1)c2nc(NCc3cccnc3)nc4ccsc24], the pIC50 in assay [1] is 6.39.

Take `O=C(c1cncs1)c1nc(NCc2cccnc2)nc2ccsc12` [O=C(c1cncs1)c2nc(NCc3cccnc3)nc4ccsc24]: the pIC50 in assay [1] was 5.77.

In the case of `O=C(c1nccs1)c1nc(NCc2cccnc2)nc2ccsc12` [O=C(c1nccs1)c2nc(NCc3cccnc3)nc4ccsc24], the pIC50 in assay [1] is 6.14.

The record behind these values is paper PMC6317804, “The integration of pharmacophore-based 3D QSAR modeling and virtual screening in safety profiling: A case study to identify antagonistic activities against adenosine receptor, A2A, using 1,897 known drugs” (PLoS ONE, 2019).
